# Data from article PMC7995547, “ω‐Imidazolyl‐alkyl derivatives as new preclinical drug candidates for treating non‐alcoholic steatohepatitis” (Physiological Reports, 2021).
# System: HFD‐induced NASH rat model (liver)
# Assay: Liver histopathology, semi‐quantitative evaluation, NASH rat model
# Format: in vivo, Wistar rats
# Parameters: key to Steatosis score / Balooning score: 0, none; 1, ≤25%; 2, 26–50%; 3, ≥51–75% of liver parenchyma
# Conditions: for Balooning score / Inflammation score / Steatosis score: H.E.‐stained liver slices
# Procedure: Studies were done using Wistar rats of female sex by the Institute of Pharmacology and Biochemistry at Minsk. The animals were 80–90 days old and weighed 180–200 g. They had free access to a liquid Lieber‐DeCarli (LDC) diet (Lieber et al., 2004) and were housed under standard conditions meaning a 12‐h light/dark cycle at 22 ± 2°C and 55 ± 5% humidity.
# Group 1 was designated as the first control group; it was fed a normal standard solid diet. Group 2, as the second control group, was fed a standard amount of fat as a part of the liquid “physiological,” non‐high fat LDC diet. All other groups received the liquid ‘disease‐causing’ LDC diet (Table 2), including a high content of unsaturated fatty acids.
# Both LDC diets were in a liquid form as produced by ssniff‐Spezialdiäten GmbH, Soest (Germany). The feed was provided over the entire experimental period of 16 weeks; however, the corresponding experimental substances were only administered in the last four weeks (Figure 3).
# The experimental substances I‐ol, I‐an, and UDCA were dissolved in a 0.8% aqueous HPMC gel to obtain the following concentrations: (1) I‐ol at 0.4, 4, and 40 mg/kg body weight (b.w.), (2) I‐an at 0.4, 4, and 40 mg/kg b.w., and (3) UDCA at 40 mg/kg b.w. The Group‐2 and −3 rats received only HPMC as placebo. Each test encompassed 6–8 rats that were put up in a separate cage. The rats were fed ad libitum, and their intake per cage was controlled daily. In order to ensure an exact daily reproducible dosage, the experimental substances or only HPMC was administered intragastrically via oral gavage. Basically, the drug therapy of a chronic disease is the more efficient the higher the adherence of the affected patients. This is generally higher with peroral administration than with any other form of application. At the end of the experiment, the animals were sacrificed under fasting conditions, by aorta dissection and exsanguination, after anesthetizing with an intraperitoneal injection of 5% pentobarbital solution.
# Pieces of liver tissue measuring 1 × 2 × 0.5 mm were chosen randomly and fixed for a week in the mixture of 1% formaldehyde and 1% paraformaldehyde in Sorensen's phosphate buffer (pH 7.4) (Morphisto GmbH, Frankfurt/Main). After this the pieces were kept in 2.5% glutaraldehyde in same buffer, rinsed and then post‐fixed in 1% solution of osmium tetroxide on the Sorensen's phosphate buffer (pH 7.4). After fixation, the liver samples were dehydrated and embedded in the pre‐polymerized mixture of methyl methacrylate and butyl methacrylate (1:4, v/v) containing 2,4‐dichlorbenzoyl peroxide as a catalyst.
# […] A semi‐quantitative evaluation of the sections was performed according to the procedure described by Koppe et al. (Koppe et al., 2004).
SMILES,Balooning score (0.4 mg/kg b.w. + HFD),Inflammation score (0.4 mg/kg b.w. + HFD),Steatosis score (0.4 mg/kg b.w. + HFD),Balooning score (4.0 mg/kg b.w. + HFD),Inflammation score (4.0 mg/kg b.w. + HFD),Steatosis score (4.0 mg/kg b.w. + HFD),Balooning score (40.0 mg/kg b.w. + HFD),Inflammation score (40.0 mg/kg b.w. + HFD),Steatosis score (40.0 mg/kg b.w. + HFD),Effect on liver histology (in words) (animals with NASH (HFD))
"CCCCCCCCCCCCn1ccnc1 [I‐an, 1‐imidazolyldodecane]",0–1,"1 (1, <5 signs of inflammation)",0–1,"1 (1, ≤25%)","1 (1, <5 signs of inflammation)",0–1,0–1,"1 (1, <5 signs of inflammation)",0–1,
"OCCCCCCCCCCCCn1ccnc1 [I‐ol, 12‐imidazolyl‐1‐dodecanol]","1 (1, ≤25%)",1–2,0–1,"1 (1, ≤25%)","1 (1, <5 signs of inflammation)",0,"1 (1, ≤25%)","1 (1, <5 signs of inflammation)",0–1,dose‐dependent reduction of the pathological signs
